The results in this text go back to patent publication EP4692321A1, “CELL STRUCTURE PRODUCTION METHOD” (Toppan Holdings Inc., priority 2023, dated 2024).

For series [1], the system named is vascularized liver model. The series can be described thus: Vascular toxicity: CD31 immunostaining and blood vessel length after monocrotaline (Test Example 5). The settings on record: vascularized liver model compared to other models; 0 to 600 µM added on Day 7, 7 further days; relative to no monocrotaline = 100%. The series is classed as cell-based, human. As to the method: (§1) Except for using a 24-transwell as the culture vessel, culturing a cell mixture of 1.95 × 10^4 human hepatocytes (PXB Cells (registered trademark); manufactured by PhoenixBio Co., Ltd.) and 3.0 × 10^3 immortalized sinusoidal endothelial cells (SEC; manufactured by Sciencell, Product No. 5000) using the HCM medium including 50 ng/mL VEGF-A and 50 ng/mL VEGF-C as vascular development factors and 1 v/v% vascular maintenance factor cocktail,culturing a cell mixture of human hepatocytes (PXB Cells (registered trademark); manufactured by PhoenixBio Co., Ltd.), 7.5 × 10^3 immortalized sinusoidal endothelial cells (SEC, manufactured by Sciencell, Product No. "5000"), and 3.0 × 10^3 hepatic stellate cells (LX2; manufactured by Sigma-Aldrich) using the HCM medium including 1 v/v% vascular maintenance factor cocktail, orculturing a cell mixture of 2.1 × 10^3 immortalized sinusoidal endothelial cells (SEC; manufactured by Sciencell, Product No. "5000") and 9.0 × 10^3 hepatic stellate cells (LX2; manufactured by Sigma-Aldrich) using the HCM medium including 1 v/v% vascular maintenance factor cocktail, cell mixtures were cultured and cell structures were obtained in the same manner as in Test Example 4. […]
In addition, vascular structures were extracted from the microscopic images shown in FIGS. 8 and 9, and the blood vessel lengths of the cell structures were measured. […]

Series [2] relates to vascularized liver model. Briefly: Cell viability by ATP assay (CellTiter-Glo 3D) after monocrotaline (Test Example 5). The series is classed as cell-based, human. The settings on record: vascularized liver model compared to other models, 0 to 600 µM added on Day 7, 7 further days. On the procedure: as §1
In addition, the cell viability of the similarly produced cell structure was also quantified by an ATP assay. […]
For orientation: ATP-based viability assays read luminescence as a measure of living cells.

With `C[C@H]1C(=O)O[C@@H]2CCN3CC=C(COC(=O)[C@](C)(O)[C@]1(C)O)[C@H]23` [monocrotaline], in the series with vascularized liver model [1], the blood vessel length result is on record as “notably shorter blood vessel length”. Also, the cell viability result in the series with vascularized liver model [2] is reported as “concentration-dependent decrease in cell viability”.
